Our source for the GI50 and TGI values is PubChem BioAssay (NCI).

Some test systems named below: CAKI-1 renal; T-47D breast; SNB-75 CNS; HS 578T breast; U251 CNS; SK-MEL-2 melanoma; PC-3 prostate; K-562 leukemia; MDA-MB-231 breast; SK-MEL-28 melanoma.
Holding throughout (assay): NCI anticancer screen, dose series, 48 h

Each structure is given as a SMILES string.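 Protocol summary: plate cells (96-well), add compound at 5 concentrations, incubate 48 h, interpolate endpoints linearly. GI50: concentration for 50% inhibition of growth. TGI is the concentration that stops growth completely.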

Take `O=C(c1cccnc1)c1cc(-c2ccccn2)c(=O)n2ccccc12`: the GI50 in the assay with CAKI-1 renal, with T-47D breast, with SNB-75 CNS, in the assay with HS 578T breast, in the assay with U251 CNS and in the assay on SK-MEL-2 melanoma was greater than 100 µM in each case. Moreover, the GI50 with PC-3 prostate, in the assay on K-562 leukemia, in the assay on MDA-MB-231 breast and in the assay on SK-MEL-28 melanoma was greater than 100 µM each time. Also, the TGI in the assay with CAKI-1 renal, in the assay on T-47D breast, with SNB-75 CNS, in the assay on HS 578T breast, in the assay with U251 CNS and with SK-MEL-2 melanoma was greater than 100 µM throughout. In addition, the TGI in the assay on PC-3 prostate, with K-562 leukemia, with MDA-MB-231 breast and with SK-MEL-28 melanoma was greater than 100 µM throughout.

`CCOc1ccccc1/C=N\N=C(\N)N/N=C/c1ccccc1OCC`: the GI50 in the assay with CAKI-1 renal was 4.12 µM; in the assay on T-47D breast it was 3.73 µM; in the assay on SNB-75 CNS it was 1.78 µM; with HS 578T breast, 1.65 µM; with U251 CNS it was 3.35 µM; in the assay on SK-MEL-2 melanoma it was 1.26 µM. The GI50 with PC-3 prostate was 3.14 µM; with K-562 leukemia, 0.707 µM; with MDA-MB-231 breast, 4.69 µM; with SK-MEL-28 melanoma, 4.51 µM. In addition, the TGI with CAKI-1 renal is greater than 100 µM; in the assay on T-47D breast it was greater than 100 µM; in the assay with SNB-75 CNS it was 8.05 µM; with HS 578T breast, 7.26 µM; with U251 CNS, greater than 100 µM; in the assay on SK-MEL-2 melanoma it was greater than 100 µM. The TGI in the assay with PC-3 prostate, with K-562 leukemia, with MDA-MB-231 breast and in the assay on SK-MEL-28 melanoma was greater than 100 µM throughout.
